In US20120295960A1, “TREATMENT REGIMEN FOR PARKINSON'S DISEASE” (priority 2011, published 2012):

Test system: MPTP macaques
Test: Dyskinesia studies in drug-naive MPTP primates (video dyskinesia analysis, L-Dopa and apomorphine challenge)
Excerpt: Neurotoxin MPTP was first administrated to 23 macaques until they developed severe Parkinsonism, these were then divided into experimental groups according to the following experiments: • 1. […] The animals were then observed from 2 up to 44 months. A subset of these primates were included for histology, microdialysis, electrophysiology, and metabolism studies. • 2. […] For the latter group, five MPTP macaques received daily oral L-Dopa for 12 weeks (MPTP-L-Dopa group, n=5). • 3. In the third experiment the potential of dyskinesia induction in MPTP macaques was studied by challenging them with a short acting D1/D2 dopaminergic agonist, apomorphine, then with an acute oral dose of L-Dopa. […] Animals were then challenged with L-Dopa and the number of dyskinesias was assessed with a specific software (The Observer®, Noldus)
All animals were assessed daily for their general clinical condition with special attention paid to the nutritional status. At the same time, the general neurological state of each macaque was assessed both pre- and post-lentiviral injections. To objectively quantify our neurological observations, animals were video-taped for 30 minutes before MPTP lesioning and at regular intervals following viral injections. The videos were then analyzed off-line by an examiner blinded to the experimental conditions. […]

CN1CCc2cccc3c2[C@H]1Cc1ccc(O)c(O)c1-3 [apomorphine]
locomotor activity after acute administration (MPTP-long term and MPTP-LacZ primates): levels similar to that of normal primates | dyskinesia after acute administration (MPTP-long term and MPTP-Lenti-LacZ animals): debilitating choreiform and dystonic movements
